≈ marks a conversion by molar mass, not a printed value.
Columns and labels:
Bacillus subtilis = experiment: Antibacterial activity against Bacillus subtilis ATCC 23857 assessed as bacterial growth inhibition incubated for 18 hrs by broth microdilution method; type: functional
Escherichia coli = experiment: Antibacterial activity against Escherichia coli ATCC 25922 assessed as bacterial growth inhibition incubated for 18 hrs by broth microdilution method; type: functional
Erythrocyte = experiment: Hemolytic activity in mouse red blood cell assessed as hemolysis incubated for 1 hr; type: toxicity, cell-based; conditions: dose 4-256 µg/ml
Enterococcus faecalis = experiment: Antibacterial activity against Enterococcus faecalis ATCC 29212 assessed as bacterial growth inhibition incubated for 18 hrs by broth microdilution method; type: functional
Klebsiella pneumoniae = experiment: Antibacterial activity against Klebsiella pneumoniae ATCC 700603 assessed as bacterial growth inhibition incubated for 18 hrs by broth microdilution method; type: functional
[1] = Hemolytic activity in mouse red blood cells assessed as hemolysis at 256 microg/ml incubated for 1 hr relative to control; type: toxicity, cell-based, Erythrocyte; conditions: red blood cells (erythrocytes), at 256 µg/mL, read-out: Activity
Staphylococcus aureus = experiment: Antibacterial activity against Staphylococcus aureus ATCC 25923 assessed as bacterial growth inhibition incubated for 18 hrs by broth microdilution method; type: functional
Pseudomonas aeruginosa = experiment: Antibacterial activity against Pseudomonas aeruginosa ATCC 27853 assessed as bacterial growth inhibition incubated for 18 hrs by broth microdilution method; type: functional

Structure (SMILES) | MIC (Bacillus subtilis) [µg/mL] | MIC (Escherichia coli) [µg/mL] | HC10 (Erythrocyte) [µg/mL] | MIC (Enterococcus faecalis) [µg/mL] | MIC (Klebsiella pneumoniae) [µg/mL] | hemolysis at 1 h, 256 µg/mL [1] [%] | MIC (Staphylococcus aureus) [µg/mL] | MIC (Pseudomonas aeruginosa) [µg/mL]
CCCCCC(=O)N[C@@H](CCN)C(=O)N[C@H](C(=O)N[C@@H](CCN)C(=O)N[C@H](Cc1ccccc1)C(=O)N[C@@H](CC(C)C)C(=O)N[C@H]1CCNC(=O)[C@H]([C@@H](C)O)NC(=O)[C@H](CC(C)C)NC(=O)[C@@H](C(C)C)NC1=O)[C@@H](C)CC | 4 (≈ 3.69 µM) | 16 (≈ 14.7 µM) | 512 | > 128 | 128 (≈ 118 µM) | < 5 | 32 (≈ 29.5 µM) | 128 (≈ 118 µM)
CCC[C@H](O)CC(=O)N[C@@H](CCN)C(=O)N[C@H](C(=O)N[C@@H](CCN)C(=O)N[C@H](Cc1ccccc1)C(=O)N[C@@H](CC(C)C)C(=O)N[C@@H](CCN)C(=O)N[C@@H](C(=O)N[C@@H](CC(C)C)C(=O)N[C@H](C(N)=O)[C@@H](C)O)C(C)C)[C@@H](C)CC | 8 (≈ 7.15 µM) | 32 (≈ 28.6 µM) | 512 | > 128 | 64 (≈ 57.2 µM) | < 2 | 128 (≈ 114 µM) | 4 (≈ 3.58 µM)
CCCCCC(=O)N[C@@H](CCN)C(=O)N[C@H](C(=O)N[C@@H](CCN)C(=O)N[C@H](Cc1ccccc1)C(=O)N[C@@H](CC(C)C)C(=O)N[C@@H](CCN)C(=O)N[C@@H](C(=O)N[C@@H](CC(C)C)C(=O)N[C@H](C(N)=O)[C@@H](C)O)C(C)C)[C@@H](C)CC | 4 (≈ 3.63 µM) | 16 (≈ 14.5 µM) | 512 | 128 (≈ 116 µM) | 32 (≈ 29 µM) | < 10 | 32 (≈ 29 µM) | 4 (≈ 3.63 µM)
CCCCCCCCCCCCCC(=O)N[C@@H](CCN)C(=O)N[C@H](C(=O)N[C@@H](CCN)C(=O)N[C@H](Cc1ccccc1)C(=O)N[C@@H](CC(C)C)C(=O)N[C@@H](CCN)C(=O)N[C@@H](C(=O)N[C@@H](CC(C)C)C(=O)N[C@H](C(N)=O)[C@@H](C)O)C(C)C)[C@@H](C)CC | 16 (≈ 13.2 µM) | 128 (≈ 105 µM) | 32 | 16 (≈ 13.2 µM) | > 128 | – | 32 (≈ 26.3 µM) | 32 (≈ 26.3 µM)
CC[C@H](C)[C@@H]1NC(=O)[C@H](CCN)NC(=O)[C@H](CC(C)C)NC(=O)[C@H]([C@@H](C)O)NC(=O)[C@H](CC(C)C)NC(=O)[C@@H](C(C)C)NC(=O)[C@H](CCN)NC(=O)[C@H](CC(C)C)NC(=O)[C@@H](Cc2ccccc2)NC(=O)[C@H](CCN)NC1=O | 16 (≈ 14.5 µM) | 32 (≈ 29.1 µM) | 512 | > 128 | 32 (≈ 29.1 µM) | < 5 | > 128 | 16 (≈ 14.5 µM)
CC[C@H](C)[C@H](NC(=O)[C@H](CCN)NC(=O)CC(O)C(C)C)C(=O)N[C@@H](CCN)C(=O)N[C@H](Cc1ccccc1)C(=O)N[C@@H](CC(C)C)C(=O)N[C@@H](CCN)C(=O)N[C@@H](C(=O)N[C@@H](CC(C)C)C(=O)N[C@H](C(N)=O)[C@@H](C)O)C(C)C (some centres not stated) | 8 (≈ 7.15 µM) | 32 (≈ 28.6 µM) | 512 | > 128 | 64 (≈ 57.2 µM) | < 2 | > 128 | 4 (≈ 3.58 µM)
CCCCCC(=O)N[C@@H](CCN)C(=O)N[C@H](C(=O)N[C@@H](CCN)C(=O)N[C@H](Cc1ccccc1)C(=O)N[C@@H](CC(C)C)C(=O)N[C@@H](CCN)C(=O)N[C@@H](C(=O)N[C@@H](CC(C)C)C(=O)N[C@H](C(N)=O)[C@@H](C)CC)C(C)C)[C@@H](C)CC | 8 (≈ 7.18 µM) | 16 (≈ 14.4 µM) | 512 | 128 (≈ 115 µM) | 32 (≈ 28.7 µM) | < 5 | 32 (≈ 28.7 µM) | 4 (≈ 3.59 µM)
CCCCCC(=O)N[C@@H](CCN)C(=O)N[C@H](C(=O)N[C@@H](CCN)C(=O)N[C@H](Cc1ccccc1)C(=O)N[C@@H](CC(C)C)C(=O)N[C@@H](CCN)C(=O)N[C@@H](C(=O)N[C@@H](CC(C)C)C(=O)N[C@@H](CCCCN)C(N)=O)C(C)C)[C@@H](C)CC | 8 (≈ 7.08 µM) | 64 (≈ 56.7 µM) | 512 | 128 (≈ 113 µM) | 32 (≈ 28.3 µM) | < 5 | 64 (≈ 56.7 µM) | 2 (≈ 1.77 µM)
C/C=C(/NC(=O)[C@H](CC(C)C)NC(=O)[C@H](NC(=O)[C@H](CCN)NC(=O)[C@H](CC(C)C)NC(=O)[C@@H](Cc1ccccc1)NC(=O)[C@H](CCN)NC(=O)[C@@H](NC(=O)[C@H](CCN)NC(=O)C[C@@H](O)CCC)[C@@H](C)CC)C(C)C)C(=O)O | 32 (≈ 29.1 µM) | 64 (≈ 58.1 µM) | 512 | > 128 | 128 (≈ 116 µM) | – | > 128 | 32 (≈ 29.1 µM)
CCCCCCCCC(=O)N[C@@H](CCN)C(=O)N[C@H](C(=O)N[C@@H](CCN)C(=O)N[C@H](Cc1ccccc1)C(=O)N[C@@H](CC(C)C)C(=O)N[C@@H](CCN)C(=O)N[C@@H](C(=O)N[C@@H](CC(C)C)C(=O)N[C@H](C(N)=O)[C@@H](C)O)C(C)C)[C@@H](C)CC | 4 (≈ 3.49 µM) | 4 (≈ 3.49 µM) | 64 | 8 (≈ 6.99 µM) | 8 (≈ 6.99 µM) | – | 8 (≈ 6.99 µM) | 8 (≈ 6.99 µM)
